The target of this experiment is CT-L activity of purified 20S proteasome (Homo sapiens, UniProt P20618+P28074). The experiment can be described thus: in vitro CT-L activity of purified 20S proteasome. It is filed as biochemical. Conditions: for fold improved CT-L activity: compared to the hit 1 (PI-1833).
The mark [1] stands for this setting: Table 5, read-out: IC50 (μM) Chymotrypsin-like.
Where [2] appears, read: Table 1, read-out: IC50 (μM) Chymotrypsin-like activity.
The mark [3] stands for this setting: Table 5, @ 10 μM, read-out: Screening Results (% Inhibition @ 10 μM) Chymotrypsin-like.
Where [4] appears, read: Table 3, read-out: IC50 (μM) CT-L.

From US9878999B2, “Proteasome chymotrypsin-like inhibition using PI-1833 analogs” (H. Lee Moffitt Cancer Center and Research Institute, Inc., priority 2011, dated 2018) come the findings set out here.

Usually IC50 stands for the point on the concentration scale where inhibition reaches its midpoint. Usually inhibition stands for the relative decrease from the control value, in per cent.

Where “and” joins values, the source holds several entries; their conditions need not be identical. Identical values can stand only once. Like-named read-outs stand apart in the source and are kept apart here.

Take `Cc1ccc(OCC(=O)N(Cc2nc(-c3ccc(C)cc3)no2)CC(C)C)cc1` [12a, N-Isobutyl-N-((3-p-tolyl-1,2,4-oxadiazol-5-yl)methyl)-2-(p-tolyloxy)acetamide]: the “fold loss of CT-L activity” value (compared to 1) was 3 fold. In addition, the IC50 (read-out: IC50, in vitro CT-L) came out at 2.37 µM. `Cc1ccc(OCC(=O)N(Cc2coc(-c3ccccc3)n2)C(C)C)cc1`: the IC50 under setting [1] is 0.14 ± 0.003 µM. For `Cc1ccc(OCC(=O)N(Cc2nc(-c3ccc(Cl)cc3)no2)C(C)C)cc1` [drawing 113], under setting [1], the half-maximal inhibitory concentration (IC50) is 0.45 ± 0.15 µM.

In the case of `Cc1ccc(-c2noc(CN(C(=O)COc3ccc(C(F)(F)F)cc3)C(C)C)n2)cc1` [11a, N-Isopropyl-N-((3-p-tolyl-1,2,4-oxadiazol-5-yl)methyl)-2-(4-(trifluoromethyl)phenoxy)acetamide], the 50% inhibitory concentration (IC50) under setting [2] was 1.08 ± 0.33 µM and the half-maximal inhibitory concentration (IC50) (read-out: IC50, in vitro CT-L) was approximately 1 µM.

For the compound `CC(C)N(Cc1nc(-c2ccccc2)no1)C(=O)COc1ccc(C(F)(F)F)cc1` [11b, N-Isopropyl-N-((3-phenyl-1,2,4-oxadiazol-5-yl)methyl)-2-(4-(trifluoromethyl)phenoxy)acetamide], the concentration for half-maximal inhibition (IC50) under setting [2] was found to be 0.43 ± 0.12 µM and the concentration for half-maximal inhibition (IC50) (read-out: IC50, in vitro CT-L) fell in the range of 0.3 to 0.5 µM. For the compound `Cc1ccc(OCC(=O)N(Cc2nc3ccccc3[nH]2)C(C)C)cc1` [drawing 151], under setting [3], the inhibition at 10 µM worked out at 80.4 ± 3.04%. Under setting [1], the IC50 stood at 12.5 ± 2.96 µM. For the compound `CCCc1ccc(OC(C)C(=O)N(Cc2nc(-c3cccnc3)no2)C(C)C)cc1` (racemic) [drawing 177], under setting [1], the 50% inhibitory concentration (IC50) came out at 0.289 µM. Consider `CCCc1ccc(O[C@H](C)C(=O)N(Cc2nc(-c3cccnc3)no2)C(C)C)cc1`, for which, under setting [1], the 50% inhibitory concentration (IC50) is 2.39 µM and 1.99 µM.

With `CC(C)N(Cc1nc(-c2ccccc2)no1)C(=O)COc1ccc(C(=O)O)cc1` [drawing 143], the “Screening Results (% Inhibition @ 10 μM) Chymotrypsin-like” value (Table 5, @ 10 μM) is 27.76 ± 20.83 (n = 5) %. For the compound `CCCc1ccc(OCC(=O)N(Cc2nc(-c3cncnc3)no2)C(C)C)cc1` [drawing 168], the IC50 under setting [1] is 0.032 ± 0.003 µM. Take `CC(C)N(Cc1nc(-c2cccnc2)no1)C(=O)c1cc2ccccc2o1` [SO3-029]: under “Table 10, read-out: IC50 (μM) CT-L”, the IC50 was 0.379 ± 0.063 µM. With `Cc1ccc(OCC(=O)N(Cc2nc(-c3ccccc3)no2)C(C)C)cc1` [drawing 117], the IC50 under setting [1] amounted to 0.31 µM. As to `Cc1ccc(OCC(=O)N(CCc2nc(-c3ccccc3)no2)C(C)C)cc1` [drawing 144], the inhibition at 10 µM under setting [3] is 31.4 ± 11.2%. Take `Cc1ccc(OC(C)C(=O)N(Cc2nc(-c3cccnc3)no2)C(C)C)cc1` (racemic) [16a]: the IC50 reads like this: under setting [4], 0.38 ± 0.099 µM; (read-out: IC50, in vitro CT-L) 0.318 µM.

With `Cc1ccc(OCC(=O)N(Cc2nc(-c3ccc(C)cc3)no2)C(C)(C)C)cc1` [drawing 142], the inhibition at 10 µM under setting [3] was -108 ± 119%.

As to `Cc1ccc(OC(C)C(=O)N(Cc2nc(-c3cccnc3)no2)C(C)C)cc1` (stereo not shown), under setting [3], the inhibition at 10 µM is 92.9 ± 1.7%. Further, the half-inhibitory concentration (IC50) under setting [1] worked out at 0.38 ± 0.099 µM. As for `Cc1ccc(O[C@H](C)C(=O)N(Cc2nc(-c3cccnc3)no2)C(C)C)cc1` [drawing 163], the half-maximal inhibitory concentration (IC50) under setting [1] came to 7.52 ± 2.13 µM.

On to `CCCc1ccc(OCC(=O)N(Cc2nc(-c3cncnc3)no2)C(C)C)cc1` [11al], for which, for the setting “read-out: IC50, in vitro CT-L”, the IC50 came out at 0.032 µM. Consider `CCCc1ccc(O[C@@H](C)C(=O)N(Cc2nc(-c3cccnc3)no2)C(C)C)cc1` [16e, (S)—N-Isopropyl-2-(4-propylphenoxy)-N-((3-(pyridine-3-yl)-1,2,4-oxadiazol-5-yl)methyl)propanamide], for which the “fold difference of CT-L potency between S- and R-enantiomer” value (16c vs 16b, 16e vs 16f) is recorded as 40 fold. Besides, the IC50 under setting [4] worked out at 0.075 µM. In the case of `CC(C)c1ccc(OCC(=O)N(Cc2nc(-c3cccnc3)no2)C(C)C)cc1` [drawing 171], under setting [1], the IC50 is 0.436 ± 0.073 µM. As to `CC(C)N(Cc1nc(-c2cccnc2)no1)C(=O)COc1ccc(C(C)(C)C)cc1` [11aj, N-Isopropyl-2-(4-tert-butylphenoxy)-N-((3-(pyridin-3-yl)-1,2,4-oxadiazol-5-yl)methyl)acetamide], the “CT-L inhibitory activity, in words” value was “failed to improve the CT-L activity”. Also, the half-inhibitory concentration (IC50) under setting [2] turned out to be 65.9 ± 33.7 µM. For the setting “compared to 11ad or 11ae”, the “fold loss of CT-L activity” value is given as more than 35 fold. For the compound `CC(C)N(Cc1nc(-c2cccnc2)no1)C(=O)COc1ccc(C2CCCCC2)cc1` [drawing 169], the IC50 under setting [1] amounted to 1.36 ± 0.184 µM. Turning to `Cc1ccc(OCC(=O)N(Cc2nc(-c3ccc(C)cc3)no2)CC(C)C)cc1` [compound 36], the “CT-L inhibitory activity, in words” value is recorded as “loss of CT-L proteasome activity”. Where the note is “Table 7, 20S CT-L proteasome activity, read-out: IC50 (μM) CT-L”, the IC50 worked out at 2.37 ± 0.4 µM. Regarding `CCCc1ccc(OCC(=O)N(Cc2nc(-c3cnccn3)no2)C(C)C)cc1` [11am, N-Isopropyl-2-(4-propylphenoxy)-N-((3-(pyrazin-2-yl)-1,2,4-oxadiazol-5-yl)methyl)acetamide], the IC50 under setting [2] came out at 0.105 ± 0.031 µM. Also, for the setting “compared to 11ad or 11ae”, the “fold loss of CT-L activity” value turned out to be 3 fold. As for `CCc1ccc(OCC(=O)N(Cc2nc(-c3cccnc3)no2)C(C)C)cc1` [11ab, 2-(4-Ethylphenoxy)-N-isopropyl-N-((3-pyridin-3-yl)1,2,4-oxadiazol-5-yl)methylacetamide], the “fold improved CT-L activity” value was determined as 6 fold. Also, the half-inhibitory concentration (IC50) (read-out: IC50, in vitro CT-L) is 0.099 ± 0.03 µM. Turning to `Cc1ccc(OCC(=O)N(Cc2nc(-c3ccccc3)no2)C(C)C)cc1` [drawing 139], the IC50 under setting [1] was 0.22 ± 0.084 µM. With `CC(C)N(Cc1nc(-c2ccccc2)no1)C(=O)COc1ccc(C(F)(F)F)cc1` [drawing 116], the IC50 under setting [1] is 0.43 ± 0.12 µM. With `CC(C)N(Cc1nc(-c2ccccc2)no1)C(=O)COc1ccc2cc(Br)ccc2c1` [drawing 133], the inhibition at 10 µM under setting [3] is less than 70%.

In the case of `Cc1ccc(-c2noc(CN(C(=O)COc3ccc(C(C)C)cc3)C(C)C)n2)cc1`, the 50% inhibitory concentration (IC50) under setting [1] was determined as 4.12 ± 0.09 µM. Take `CC(C)N(Cc1nc(-c2ccccc2)no1)C(=O)CCc1ccc(C(F)(F)F)cc1` [drawing 183]: for the setting “Table 9, read-out: IC50 (μM) Chymotrypsin-like”, the half-inhibitory concentration (IC50) came out at 15.7 µM.

`Cc1ccc(OCC(=O)N(Cc2nc(-c3ccc(C)cc3)no2)C(C)C)cc1` [drawing 108]: the “Screening Results (% Inhibition @ 10 μM) Chymotrypsin-like” value (Table 5, @ 10 μM) was 74% and 67% and 71%. Moreover, under setting [3], the inhibition at 10 µM was 73%. Besides, the IC50 under setting [1] was found to be 0.65 ± 0.38 µM.

Turning to `Cc1ccc(CNC(=O)N(Cc2nc(-c3ccccc3)no2)C(C)C)cc1` [drawing 129], the inhibition at 10 µM under setting [3] was -8.75 ± 17.4%.

On to `Cc1ccc(OCC(=O)N(Cc2nc(-c3ccncc3)no2)C(C)C)cc1` [11y, N-Isopropyl-N-((3-(pyridin-4-yl)-1,2,4-oxadizaol-5-yl)methyl)-2-(p-tolyloxy)acetamide], for which, where the note is “read-out: IC50, in vitro CT-L”, the IC50 was 0.37 ± 0.04 µM. Turning to `CC(C)N(Cc1nc(-c2ccccc2)no1)C(=O)COc1ccc(Cl)cc1` [drawing 121], under setting [1], the IC50 was 0.51 ± 0.16 µM. Consider `CCCc1ccc(OCC(=O)N(Cc2nc(-c3cccnc3)no2)C(C)C)cc1` [drawing 157], for which the inhibition at 10 µM under setting [3] was 92.3 ± 2.19%. In addition, under setting [1], the IC50 was determined as 0.032 ± 0.00015 µM. As for `CC(C)N(Cc1nc(-c2ccc(C(F)(F)F)cc2)no1)C(=O)COc1ccc(C(F)(F)F)cc1` [drawing 115], the IC50 under setting [1] stood at 2.53 ± 0.95 µM.

Take `Cc1ccc(OCC(=O)N(Cc2nc(-c3ccc(Cl)cc3)no2)C(C)C)cc1` [11i, N-((3-(4-chlorophenyl)-1,2,4-oxadiazol-5-yl)methyl)-N-isopropyl-2-(p-tolyloxy)acetamide]: the IC50 by setting is: under setting [2], 0.45 ± 0.15 µM; (read-out: IC50, in vitro CT-L) approximately 1 µM. Take `CC(C)N(Cc1nc(-c2ccc(C(F)(F)F)cc2)no1)C(=O)COc1ccc(Cl)cc1` [11f, 2-(4-Chlorophenoxy)-N-isopropyl-N-((3-(4-(trifluoromethyl)phenyl)-1,2,4-oxadiazol-5-yl)methyl)acetamide]: the IC50 runs as follows: under setting [2], 1.4 ± 0.185 µM; (read-out: IC50, in vitro CT-L) approximately 1 µM. On to `Cc1ccc(OCC(=O)N(Cc2nc(-c3cccnc3)no2)C(C)C)cc1` [11x, N-isopropyl-N-((3-(pyridin-3-yl)-1,2,4-oxadiazol-5-yl)methyl)-2-(p-tolyloxy)acetamide], for which the “fold improved CT-L activity” value is on record as 2.5 fold. For the setting “read-out: IC50, in vitro CT-L”, the IC50 turned out to be 0.239 ± 0.09 µM. Regarding `CCCCCc1ccc(OCC(=O)N(Cc2nc(-c3cccnc3)no2)C(C)C)cc1` [drawing 164], under setting [1], the half-inhibitory concentration (IC50) was 0.121 ± 0.04 µM.

`CCc1ccc(OCC(=O)N(Cc2nc(-c3cccnc3)no2)C(C)C)cc1` [drawing 145]: under setting [1], the concentration for half-maximal inhibition (IC50) worked out at 0.099 ± 0.032 µM. On to `Cc1ccc(OCC(=O)N(Cc2nc(-c3ccccc3)no2)C(C)C)cn1` [11z, N-Isopropyl-2-(60methylpyridin-3-yloxy)-N-((3-phenyl-1,2,4-oxadiazol-5-yl)methyl)acetamide], for which the “CT-L inhibitory activity, in words” value was “failed to retain the activity”. Also, the half-inhibitory concentration (IC50) under setting [2] was 4 ± 0.89 µM.

As to `CC(C)N(Cc1nc(-c2ccccc2)no1)C(=O)CCc1ccc(C(F)(F)F)cc1` [drawing 130], under setting [1], the half-inhibitory concentration (IC50) turned out to be 44 ± 20.9 µM. As for `CCCCCCc1ccc(OCC(=O)N(Cc2nc(-c3cccnc3)no2)C(C)C)cc1` [11ag, 2-(4-Hexylphenoxy)-N-isopropyl-N-((3-(pyridine-3-yl)-1,2,4-oxadiazol-5-yl)methyl)acetamide], the IC50 under setting [2] is 0.428 ± 0.038 µM. Moreover, the “fold loss of CT-L activity” value (compared to 11ad or 11ae) is reported as 13 fold. As to `CC(C)N(Cc1nc(-c2ccccc2)no1)C(=O)COc1ccc(F)cc1` [drawing 131], the concentration for half-maximal inhibition (IC50) under setting [1] is 8.73 ± 3.05 µM. For `CC(C)N(Cc1nc(-c2ccc(Cl)cc2)no1)C(=O)COc1ccc(Cl)cc1` [drawing 119], under setting [1], the IC50 stood at 1.07 ± 0.05 µM. On the same count and under the same terms, under `CCN(Cc1nc(-c2ccc(C)cc2)no1)C(=O)COc1ccc(C)cc1` [drawing 128] stands 8.98 ± 5.21 µM. For `CC(C)N(Cc1nc(-c2ccccc2)no1)C(=O)COc1ccc(O)cc1` [drawing 156], the inhibition at 10 µM under setting [3] was -5.85 ± 23.4%. In addition, the IC50 under setting [1] is 10.1 ± 4.52 µM. As to `Cc1ccc(OCC(=O)N(Cc2nc(-c3ccc(C)cc3)no2)C(C)(C)C)cc1` [12e], the “Chymotrypsin-like activity, % @ 10 μM” value (Table 2, @ 10 μM) is recorded as −108.42 ± 118.76%. Consider `CCCCc1ccc(OCC(=O)N(Cc2nc(-c3cnccn3)no2)C(C)C)cc1` [11an], for which the concentration for half-maximal inhibition (IC50) under setting [2] was determined as 0.107 ± 0.013 µM. The “fold loss of CT-L activity” value (compared to 11ad or 11ae) turned out to be 3 fold. `Cc1ccc(OCC(=O)N(CCc2nc(-c3ccccc3)no2)C(C)C)cc1` [SO2-091, N-Isopropyl-N-(2-(3-phenyl-1,2,4-oxadiazol-5-yl)ethyl)-2-(p-tolyloxy)acetamide]: the inhibition at 10 µM (read-out: % inhibition of CT-L @ 10 μM, @ 10 μM) was found to be 31%.
